Data as given in patent US8716480B2, “7-aryl-1,2,4-triazolo[4,3-a]pyridine derivatives and their use as positive allosteric modulators of mGluR2 receptors” (Janssen Pharmaceuticals, Inc., priority 2009, dated 2014).
Like-named read-outs stand apart in the source and are kept apart here. Marks after values point to notes of the source that are not given here.

Experiments:
[1] = system: male Wiga Wistar rats; test: Conditioned avoidance response (CAR) test; format: in vivo; conditions: for ED50: Rattus norvegicus, po
From the text: The apparatus consisted of an inner box surrounded by an outer box. The inner box was composed of four walls of transparent, synthetic material (length×width×height: 30×30×30 cm), an open top, and a grid floor made of 15 pairs of iron bars (2 mm diameter; 6 mm inter-bar distance). Odd and even bars were connected with a source of alternative current (1.0 mA; Coulbourn Instruments Solid State Shocker/Distributor), which could be interrupted by a switch. The outer box was composed of the same material (length×width×height: 40×40×36 cm), also with an open top, with a distance of 5 cm between the inner and outer box on all sides. To decrease the amount of environmental stimuli, three walls of the outer box were made non-transparent. The front wall was left transparent to allow the necessary inspection of the animal during the test. The upper edge of the outer and inner box served as a target for the rats on which to jump with fore- and hind-paws, respectively.
From their arrival in the laboratory on the experimental day, male Wiga Wistar rats (230±30 g) were housed in individual cages provided with bedding material.
Latency to avoidance was recorded. The median avoidance response obtained over the three experimental sessions for each rat were used for further calculations.

[2] = molecular target: T1, human mGluR2 receptor (Homo sapiens, UniProt Q14416); test: [35S]GTPγS binding assay (PAM); format: biochemical; conditions: in presence of glutamate at predetermined EC20, membranes from CHO cells transfected with human mGluR2; for EC50: read-out: GTPγS -hR2 PAM pEC50 (converted)
T1 construct: expressed in transfected cells; host or cells: CHO cells (membranes)
T1 sequence (Q14416 19-872): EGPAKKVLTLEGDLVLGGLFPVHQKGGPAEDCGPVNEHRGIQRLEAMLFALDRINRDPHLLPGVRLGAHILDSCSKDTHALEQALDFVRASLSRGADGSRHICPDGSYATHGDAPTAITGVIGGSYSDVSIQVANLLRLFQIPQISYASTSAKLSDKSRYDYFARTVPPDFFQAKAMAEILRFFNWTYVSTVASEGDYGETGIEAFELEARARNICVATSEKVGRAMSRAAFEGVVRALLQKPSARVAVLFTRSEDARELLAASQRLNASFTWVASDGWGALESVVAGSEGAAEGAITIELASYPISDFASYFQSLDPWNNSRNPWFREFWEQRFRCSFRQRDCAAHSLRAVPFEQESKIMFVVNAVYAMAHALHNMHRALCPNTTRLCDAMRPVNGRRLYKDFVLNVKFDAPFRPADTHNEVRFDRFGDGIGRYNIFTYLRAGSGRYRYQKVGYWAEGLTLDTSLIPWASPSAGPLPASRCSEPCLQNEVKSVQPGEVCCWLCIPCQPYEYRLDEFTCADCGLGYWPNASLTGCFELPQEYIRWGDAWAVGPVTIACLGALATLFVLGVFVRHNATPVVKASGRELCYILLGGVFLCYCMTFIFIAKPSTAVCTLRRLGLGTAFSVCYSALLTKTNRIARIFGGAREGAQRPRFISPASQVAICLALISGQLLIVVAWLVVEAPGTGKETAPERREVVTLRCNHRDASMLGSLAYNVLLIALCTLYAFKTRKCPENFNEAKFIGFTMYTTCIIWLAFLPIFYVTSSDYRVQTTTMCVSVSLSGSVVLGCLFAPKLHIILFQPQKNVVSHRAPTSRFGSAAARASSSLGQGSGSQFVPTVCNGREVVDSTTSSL
Description: [^35S]GTPγS binding assay
The [^35S]GTPγS binding assay is a functional membrane-based assay used to study G-protein coupled receptor (GPCR) function whereby incorporation of a non-hydrolysable form of GTP, [^35S]GTPγS (guanosine 5′-triphosphate, labelled with […] ^35S), is measured.
CHO-cells were cultured to pre-confluence and stimulated with 5 mM butyrate for 24 h, prior to washing in PBS, and then collected by scraping in homogenisation buffer (50 mM Tris-HCl buffer, pH 7.4, 4° C.). Cell lysates were homogenized briefly using an ultra-turrax homogenizer. The homogenate was centrifuged at 16,000 RPM (Sorvall RC-5C plus rotor SS-34) for 10 minutes and the supernatant discarded. The pellet was resuspended in 5 mM Tris-HCl, pH 7.4 and centrifuged again (18,000 RPM, 20 min, 4° C.). The final pellet was resuspended in 50 mM Tris-HCl, pH 7.4 and stored at −80° C. in appropriate aliquots before use. Protein concentration was determined by the Bradford method (Bio-Rad, USA) with bovine serum albumin as standard.
Measurement of mGluR2 positive allosteric modulatory activity of test compounds was performed as follows. Test compounds and glutamate were diluted in assay buffer containing 10 mM HEPES acid, 10 mM HEPES salt, pH 7.4, 100 mM NaCl, 3 mM MgCl2 and 10 μM GDP. Human mGlu2 receptor-containing membranes were thawed on ice and diluted in assay buffer supplemented with 14 μg/ml saponin. Membranes were pre-incubated with compound alone or together with a predefined (˜EC20) concentration of glutamate (PAM assay) for 30 min at 30° C. After addition of [^35S]GTPγS (f.c. 0.1 nM) microplates were shaken briefly and further incubated to allow [^35S]GTPγS incorporation on activation (30 minutes, 30° C.). Final assay mixtures contained 7 μg of membrane protein in 10 mM HEPES acid, 10 mM HEPES salt, pH 7.4, 100 mM NaCl, 3 mM MgCl2, 10 μM GDP and 10 μg/ml saponin. Total reaction volume was […] Reactions were terminated by rapid filtration through Unifilter-96 GF/B filter plates (Packard, Meriden, Conn.) using a 96-well Packard filtermate harvester. Filters were washed 6 times with ice-cold 10 mM NaH2PO4/10 mM Na2HPO4, pH 7.4. Filters were then air-dried, and 40 μl of liquid scintillation cocktail (Microscint-O) was added to each well. Membrane-bound radioactivity was counted in a Microplate Scintillation and Luminescence Counter from Packard.
obtained in the presence of EC20 of mGluR2 agonist glutamate to determine positive allosteric modulation (PAM)—were generated using the Lexis software interface (developed at J&J). Data were calculated as % of the control glutamate response, defined as the maximal response that is generated upon addition of glutamate alone. Sigmoid concentration-response curves plotting these percentages versus the log concentration of the test compound were analyzed using non-linear regression analysis. The concentration producing half-maximal effect is then calculated as EC50.
All compounds were tested in presence of mGluR2 agonist, glutamate at a predetermined EC20 concentration, to determine positive allosteric modulation (GTPγS-PAM). pEC50 values were calculated from a concentration-response experiment of at least 10 concentrations.

[3] = system: male NMRI mice; test: Phencyclidine (PCP)-induced hyperlocomotion in mice; format: in vivo; conditions: for ED50: Mus musculus; for ED50 PCP-Inh. (estimated): estimated ED50 (n = 3 per dose; 4-fold separation between doses)
Description: On the day of experiments, the mice were brought into the procedural room. They were housed individually and allowed to acclimate for at least a half hour prior to testing. Although the studies were conducted during the light cycle (from 8:00 to 16:00 h), the procedure room was only sparsely lit (3 to 30 LUX) to provide better contrast for the video tracking. Local lighting was used for the injection procedures. During each trial, an individual mouse was placed in an open field arena (grey PVC cylinder with a height of 40 cm and a diameter of 22.5 cm). Each arena was placed on an infrared LED (8×8 LEDs)-lit box (white PVC squared box; 40×40 cm^2; height 12.5 cm). Each mouse was placed in the center of the arena and allowed to explore freely for 30 min. After each trial, the arena was cleaned with a wet and subsequently with a dry cleaning cloth. An infrared sensitive tube camera and a white light source (in arena: 4-7 LUX) were mounted to the ceiling above the observation chamber to record and input activity to a computer. Animal behavior was recorded and analyzed using the Noldus Ethovision XT Video Tracking System (Version 3.1; Noldus, Wageningen, The Netherlands). The total distance traveled (cm) was calculated. Data were then exported to data management systems for further analysis and reporting.
Test compound or solvent was administered at a pre-defined time before measurement (standard: 30 min) to male NMRI mice that were challenged with phencyclidine (PCP; 5 mg/kg, s.c.) 30 min before measurement. Activity was measured for a period of 30 min.

[4] = system: Male mice (C57BL/6); test: Reversal of memantine-induced brain activation ([14C]2DG uptake) in mice; format: in vivo; conditions: for L.A.D. (lowest active dose) for significant (p<0.05) reduction of 2DG uptake in the hippocampus compared to memantine response: mice, s.c., memantine 20 mg/kg s.c.
Description: Reversal of Memantine-Induced Brain Activation in Mice NMDA receptor hypofunction is hypothesized to be involved in schizophrenia.
Autoradiographic assessment of radiolabeled [^14C]-2-deoxyglucose ([^14C]2DG) uptake is commonly used to investigate brain activation. In humans, cerebral blood flow is increased in specific brain regions after administration of a subanaesthetic dose of ketamine.
Male mice (C57BL/6, weight 24-28 g, fasted overnight; n=10 animals per group) were treated with vehicle or test compound (s.c.) in randomized order (t=0 min). Memantine (20 mg/kg, s.c.) was injected 30 min later (t=30 min). At t=45 min, [^14C]2DG (0.16 μCi/g) was administered intraperitoneally (i.p.), followed by a 45 min uptake period. Animals were decapitated (t=90 min), plasma glucose levels measured, the brain removed, rapidly frozen and stored at −20° C. until sectioned. Brain sections were exposed together to a precalibrated [^14C]standard on film, which was developed after four days of exposure. Local tissue [^14C]concentration (nCi/mg tissue equivalent—TEQ-) in each region of interest was determined.
Data was analyzed statistically using a two-way ANOVA analysis followed by post-hoc tests (memantine response versus reversal by the compound). The results are shown in table 5 below, expressed as lowest active dose (L.A.D.) required to exert a statistically significant (p<0.05) reduction of 2DG uptake in the hippocampus compared to memantine response.

[5] = compound administered orally, criterion median avoidance latency >8 s, read-out: ED50 CAR-Inh.
[6] = mice, PCP 5 mg/kg s.c., criterion total distance <5500 counts, not marked as oral, read-out: ED50 PCP-Inh.
[7] = compound administered orally, criterion median avoidance latency >8 s
[8] = sc, read-out: ED50 PCP-Inh. (estimated)

**Q.** Which results are given for `Cc1ccc(Oc2ccc(-c3ccn4c(CC(F)(F)F)nnc4c3Cl)cc2F)c(C)n1` [Co. No. 3, 7-[3-Fluoro-4-(2′,6′-dimethyl-pyridin-3-yloxy)-phenyl]-8-chloro-3-(2,2,2-trifluoro-ethyl)-1,2,4-triazolo[4,3-a]pyridine]?
**A.** ED50 [1, 5]: 24.6 mg/kg; ED50 ([1]; not marked as oral, criterion median avoidance latency >8 s, read-out: ED50 CAR-Inh.): 18.6 mg/kg; EC50 [2]: 45.7 nM; melting point: 164.5 °C; ED50 [3, 6]: 16.2 mg/kg

**Q.** What does the source list for `Cc1ccc(Oc2ccc(-c3ccn4c(CC5CC5)nnc4c3C(F)(F)F)cc2F)c(C)n1` [Co. No. 4]?
**A.** L.A.D. (lowest active dose) for significant (p<0.05) reduction of 2DG uptake in the hippocampus compared to memantine response [4]: ≦10 mg/kg; ED50 ([1]; compound administered orally, estimated ED50 (n = 3 per dose; 4-fold separation between doses), read-out: ED50 CAR-Inh. (estimated)): 20 mg/kg; ED50 ([1]; not marked as oral, estimated ED50 (n = 3 per dose; 4-fold separation between doses), read-out: ED50 CAR-Inh. (estimated)): 7.9 mg/kg; EC50 [2]: 10.2 nM; ED50 [3, 6]: 15.2 mg/kg

**Q.** With `FC(F)(F)Cc1nnc2c(Cl)c(-c3ccc(OC4CCOCC4)c(Cl)c3)ccn12` [Co. No. 7, 7-(3-Chloro-4-pyranyl-4-oxy-phenyl)-8-chloro-3-(2,2,2-trifluoro-ethyl)-1,2,4-triazolo[4,3-a]pyridine] as the molecule, how does the EC50 [2] read?
**A.** 174 nM

**Q.** And the melting point?
**A.** 186.7 °C

**Q.** And the ED50 [3, 6]?
**A.** 10 mg/kg

**Q.** What does the source list for `Cc1ccc(Oc2ccc(-c3ccn4c(CC5CC5)nnc4c3Cl)cc2F)c(C)n1` [Co. No. 14, 8-Chloro-3-cyclopropylmethyl-7-{4-[(2,6-dimethylpyridin-3-yl)oxy]-3-fluorophenyl}[1,2,4]triazolo[4,3-a]pyridine]?
**A.** ED50 [1, 5]: 24.6 mg/kg; EC50 [2]: 42.7 nM; melting point: 207.2 °C; ED50 [3, 6]: 18 mg/kg

**Q.** Which “L.A.D. (lowest active dose) for significant (p<0.05) reduction of 2DG uptake in the hippocampus compared to memantine response” value [4] does the source give for `Cc1cc(Oc2ccc(-c3ccn4c(CC5CC5)nnc4c3Cl)cc2F)ccn1` [Co. No. 15] here?
**A.** ≦10 mg/kg

**Q.** And the “ED50 CAR-Inh.” value [1, 7]?
**A.** ≧40*^ mg/kg

**Q.** What about the “GTPγS -hR2 PAM pEC50” value [2] of the same molecule?
**A.** 6.65

**Q.** And the “ED50 PCP-Inh.” value ([3]; mice, PCP 5 mg/kg s.c., criterion total distance <5500 counts, not marked as oral)?
**A.** 20 mg/kg

**Q.** Which “L.A.D. (lowest active dose) for significant (p<0.05) reduction of 2DG uptake in the hippocampus compared to memantine response” value [4] does the source give for `CCOCc1nnc2c(C)c(-c3ccc(Oc4ccc(C)nc4C)c(F)c3)ccn12` [Co. No. 42, 8-Methyl-3-ethoxymethyl-7-{3-fluoro-4-[(2,6-dimethylpyridin-3-yl)oxy]phenyl}[1,2,4]triazolo[4,3-a]pyridine] here?
**A.** 5 mg/kg

**Q.** What about the EC50 [2] of the same molecule?
**A.** 170 nM

**Q.** What about the melting point of the same molecule?
**A.** 144 °C

**Q.** What about the ED50 [3, 8] of the same molecule?
**A.** 20 mg/kg

**Q.** For `Fc1cc(-c2ccn3c(CC4CC4)nnc3c2C(F)(F)F)ccc1Oc1ccnc(C2CC2)c1` [Co. No. 46, 3-Cyclopropylmethyl-7-[4-(2-cyclopropyl-pyridin-4-yloxy)-3-fluoro-phenyl]-8-trifluoromethyl-[1,2,4]triazolo[4,3-a]pyridine], which “L.A.D. (lowest active dose) for significant (p<0.05) reduction of 2DG uptake in the hippocampus compared to memantine response” value [4] is on record?
**A.** ≦10 mg/kg

**Q.** And the EC50 [2]?
**A.** 17.8 nM

**Q.** What about the melting point of the same molecule?
**A.** 211.1 °C

**Q.** And the ED50 [3, 8]?
**A.** 20 mg/kg

**Q.** What does the source list for `CCc1cc(Oc2ccc(-c3ccn4c(CC5CC5)nnc4c3Cl)cc2F)ccn1` [Co. No. 48, 3-Cyclopropylmethyl-7-[4-(2-ethyl-pyridin-4-yloxy)-3-fluoro-phenyl]-8-chloro-[1,2,4]triazolo[4,3-a]pyridine]?
**A.** L.A.D. (lowest active dose) for significant (p<0.05) reduction of 2DG uptake in the hippocampus compared to memantine response [4]: ≦10 mg/kg; EC50 [2]: 145 nM; melting point: > 300 °C; ED50 [3, 8]: 12.6 mg/kg

**Q.** With `FC(F)(F)c1c(-c2ccc(Oc3ccnc(C4CC4)c3)c(Cl)c2)ccn2c(CC3CC3)nnc12` [Co. No. 54] as the molecule, how does the “ED50 CAR-Inh.” value [1, 7] read?
**A.** >40* mg/kg

**Q.** What about the “GTPγS -hR2 PAM pEC50” value [2] of the same molecule?
**A.** 8.38

**Q.** Which results are given for `COc1ccc(CNc2ccc(-c3ccn4c(CC5CC5)nnc4c3C(F)(F)F)cc2)cn1` [Co. No. 58]?
**A.** ED50 CAR-Inh. [1, 7]: ≧40*^ mg/kg; GTPγS -hR2 PAM pEC50 [2]: 7.90

**Q.** Which “GTPγS -hR2 PAM pEC50” value [2] does the source give for `Fc1cnccc1Oc1ccc(-c2ccn3c(CC4CC4)nnc3c2C(F)(F)F)cc1` [Co. No. 63] here?
**A.** 7.03

**Q.** What about the “ED50 PCP-Inh. (estimated)” value ([3]; mice, PCP 5 mg/kg s.c.) of the same molecule?
**A.** 1.58^a) mg/kg

**Q.** Which “GTPγS -hR2 PAM pEC50” value [2] does the source give for `FC(F)(F)c1c(-c2ccc(N3CCNCC3)c(Cl)c2)ccn2c(CC3CC3)nnc12` [Co. No. 73] here?
**A.** 6.59

**Q.** What about the “ED50 PCP-Inh. (estimated)” value ([3]; mice, PCP 5 mg/kg s.c.) of the same molecule?
**A.** 12.6^a) mg/kg

**Q.** Which “effect on memantine-induced brain glucose metabolism / 2DG uptake (in words)” value ([4]; mouse brain) does the source give for `O=C(CCCN1CCC(O)(c2ccc(Cl)cc2)CC1)c1ccc(F)cc1` [haloperidol, reference compound] here?
**A.** inactive
